IC50 and melting point data for seven compounds are collected here from patent US6919377B2, “Cyclohexylamine derivative as subtype selective NMDA receptor antagonists” (Warner Lambert Company LLC, priority 2000, dated 2005).

One data set concerns the target D2 (Homo sapiens, UniProt P14416). In words: D2 Raclopride (Table 4, no method given). In kind it is binding.
Another data set has as its target NR1a/NR2B (Rattus norvegicus, UniProt P35439+Q00960). Nature of the data set: Electrophysiological assay at NMDA receptor subunits expressed in Xenopus oocytes (two-electrode voltage clamp). In kind it is cell-based. Here is the method:
The clones were transformed into appropriate host bacteria and plasmid preparations were made with conventional DNA purification techniques. A sample of each clone was linearized by restriction enzyme digestion […] was synthesized with T3 RNA polymerase. The cRNA was diluted to 400 ng/μL and stored in 1 μL aliquots at −80° C. until injection.
The Xenopus Oocyte Expression System. […] Follicle-enclosed oocytes were micro-injected with 1:1 mixtures of NR1A:NR2A, 2B or 2C.; injecting 1 to 10 ng of RNA encoding each receptor subunit. NR1A encoding RNA was injected alone at ˜20 ng. Oocytes were stored in Barth's medium containing (in mM): NaCl, 88; KCl, 1; CaCl2, 0.41; Ca (NO3)2, 0.33; MgSO4, 0.82; NaHCO3, 2.4; HEPES 5, pH 7.4, with 0.11 mg/ml gentamicin sulphate. While oocytes were still surrounded by enveloping ovarian tissues, the Barth's medium was supplemented with 0.1% bovine serum.
Drugs were applied by bath perfusion. Using oocytes expressing different subunit combinations of NMDA receptor, NMDA currents were activated by co-application of glutamate (100 μM) and glycine (1-100 μM). Inhibitory potency of the novel antagonists was assessed on responses elicited by fixed concentrations of glutamate and glycine, by measuring reductions in current induced by progressively increasing concentrations of antagonist.
Concentration-inhibition curves were fit with Equation 1. […] For incomplete curves analysis by fitting was unreliable and IC50 values were calculated by simple regression over linear portions of the curves (Origin: Microcal Software).
For orientation: In two-electrode clamp one electrode senses voltage and the other passes current.

For another data set, the system named is Alpha 1. In words: Alpha 1 (Table 4, no method given). In kind it is binding. To be noted: read-out: Alpha 1 cocn IC50.
Where [1] appears, read: Table 4, cloned rat NMDA receptor subunits in Xenopus oocytes, read-out: NR1a/NR2B Oocyte IC50.
[2] abbreviates: Table 1, cloned rat NMDA receptor subunits in Xenopus oocytes, currents activated by glutamate (100 μM) and glycine (1-100 μM), read-out: NR1a/NR2B Oocyte IC50.

Read-outs that look alike come from different tables or passages of the source.

Chain of D2 (P14416 whole entry): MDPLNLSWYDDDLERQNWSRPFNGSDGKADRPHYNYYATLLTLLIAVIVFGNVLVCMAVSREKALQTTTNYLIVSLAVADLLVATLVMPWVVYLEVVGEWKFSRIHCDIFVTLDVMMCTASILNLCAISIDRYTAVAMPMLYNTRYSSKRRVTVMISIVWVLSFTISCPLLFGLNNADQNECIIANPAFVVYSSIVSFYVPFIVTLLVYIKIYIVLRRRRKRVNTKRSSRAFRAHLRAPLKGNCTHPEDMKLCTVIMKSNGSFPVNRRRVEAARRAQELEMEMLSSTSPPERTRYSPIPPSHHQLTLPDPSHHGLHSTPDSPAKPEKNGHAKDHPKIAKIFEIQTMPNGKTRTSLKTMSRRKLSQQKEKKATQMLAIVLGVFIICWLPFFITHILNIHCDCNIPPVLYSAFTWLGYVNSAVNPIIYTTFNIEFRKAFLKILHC
Chain of NR1a/NR2B (Q00960 27-1482, other chains not shown): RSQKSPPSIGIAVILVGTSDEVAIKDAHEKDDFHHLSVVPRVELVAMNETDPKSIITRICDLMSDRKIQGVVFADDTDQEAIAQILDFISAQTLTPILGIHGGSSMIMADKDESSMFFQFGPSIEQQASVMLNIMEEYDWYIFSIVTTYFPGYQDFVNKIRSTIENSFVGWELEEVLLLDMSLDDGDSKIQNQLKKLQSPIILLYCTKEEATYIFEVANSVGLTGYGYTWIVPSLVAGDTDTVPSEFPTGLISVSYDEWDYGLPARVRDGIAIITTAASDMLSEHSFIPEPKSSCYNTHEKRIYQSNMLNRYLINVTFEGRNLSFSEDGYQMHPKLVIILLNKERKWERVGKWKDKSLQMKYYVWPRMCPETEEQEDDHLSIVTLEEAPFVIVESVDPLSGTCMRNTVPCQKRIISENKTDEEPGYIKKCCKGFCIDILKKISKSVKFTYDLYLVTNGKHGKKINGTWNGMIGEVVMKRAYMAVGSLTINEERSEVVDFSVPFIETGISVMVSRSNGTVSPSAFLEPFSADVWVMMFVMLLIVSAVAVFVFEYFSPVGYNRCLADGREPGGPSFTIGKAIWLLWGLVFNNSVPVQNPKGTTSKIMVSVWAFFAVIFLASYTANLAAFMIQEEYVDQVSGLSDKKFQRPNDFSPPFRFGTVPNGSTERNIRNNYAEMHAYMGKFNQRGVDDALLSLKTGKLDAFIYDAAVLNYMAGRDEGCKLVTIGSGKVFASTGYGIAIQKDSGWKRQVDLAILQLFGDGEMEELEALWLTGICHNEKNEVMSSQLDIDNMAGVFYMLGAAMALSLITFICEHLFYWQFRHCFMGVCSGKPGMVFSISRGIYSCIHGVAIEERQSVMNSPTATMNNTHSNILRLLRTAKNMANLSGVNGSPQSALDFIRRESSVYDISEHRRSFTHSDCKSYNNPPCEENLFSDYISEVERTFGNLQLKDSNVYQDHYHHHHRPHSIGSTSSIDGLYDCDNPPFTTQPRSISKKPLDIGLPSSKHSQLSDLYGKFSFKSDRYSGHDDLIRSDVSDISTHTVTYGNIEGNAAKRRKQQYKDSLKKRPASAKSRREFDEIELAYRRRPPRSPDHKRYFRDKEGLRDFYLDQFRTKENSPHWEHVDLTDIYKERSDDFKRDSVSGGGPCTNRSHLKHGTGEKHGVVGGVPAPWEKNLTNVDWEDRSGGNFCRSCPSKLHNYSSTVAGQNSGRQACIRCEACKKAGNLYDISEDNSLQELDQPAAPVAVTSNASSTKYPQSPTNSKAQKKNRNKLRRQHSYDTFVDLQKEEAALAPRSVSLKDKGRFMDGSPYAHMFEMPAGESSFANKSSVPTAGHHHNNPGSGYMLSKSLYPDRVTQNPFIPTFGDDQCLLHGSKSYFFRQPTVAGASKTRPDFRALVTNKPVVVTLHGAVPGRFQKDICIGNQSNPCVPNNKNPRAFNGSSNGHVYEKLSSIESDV

In the case of `COc1ccc(CCN[C@H]2CC[C@@H](c3ccc(O)cc3)CC2)cc1` [Example 8a, cis-4-{4-[2-(4-Methoxyphenyl)ethylamino]cyclohexyl}phenol], the IC50 at D2 was 5000 nM; on NR1a/NR2B (setting [1]), 2400 nM; in the data set on Alpha 1, 9.2 µM.
For `COc1ccc(CCCN[C@H]2CC[C@H](c3ccc(O)cc3)CC2)cc1` [Example 28, Trans-4-{4-[3-(4-methoxyphenyl)propylamino]cyclohexyl}phenol], the IC50 on D2 was 2970 nM; at NR1a/NR2B (setting [1]), 70 nM; in the data set with Alpha 1, 2.3 µM.
For `COc1ccc(CCN[C@H]2CC[C@H](c3ccc(O)cc3)CC2)cc1` [Example 8b, trans-4-{4-[2-(4-Methoxyphenyl)ethylamino]cyclohexyl}phenol], in that order: 1900 nM, 240 nM and 5.1 µM.
As a reminder, the melting point is the temperature of the solid-liquid transition. As to `CC(=O)N(CCCc1ccccc1)[C@H]1CC[C@H](c2ccc(O)cc2)CC1` [Example 17, trans-N-[4-(4-Hydroxyphenyl)cyclohexyl]-N-(3-phenylpropyl)acetamide], the melting point lay within 175 to 180 °C. Moreover, the IC50 on NR1a/NR2B (Table 2, head names no subunit, electrophysiological assay results, read-out: IC50) worked out at 4400 nM.
The compound `Oc1ccc([C@H]2CC[C@@H](NCc3ccccc3)CC2)cc1` [Example 4a, cis-4-(4-Benzylaminocyclohexyl)phenol] had a melting point of 107 to 110 °C. For the same compound, at NR1a/NR2B (setting [2]), the IC50 is 70000 nM.
In turn, `Oc1ccc([C@H]2CC[C@H](NCc3ccccc3)CC2)cc1` [Example 4b, trans-4-(4-Benzylaminocyclohexyl)phenol] returned a melting point of 168 to 172 °C. At NR1a/NR2B (setting [2]), the IC50 came out at 43000 nM.
Turning to `Oc1ccc([C@H]2CC[C@@H](NCCc3ccc(F)cc3)CC2)cc1` [Example 5a, cis-4-{4-[2-(4-Fluorophenyl)ethylamino]cyclohexyl}phenol], the values for the IC50 against D2, at NR1a/NR2B (setting [1]) and in the data set on Alpha 1 were 2700 nM, 1200 nM and 10 µM, respectively.
